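These data come from cells grown in 96-well plates and exposed to compound for 48 hours at five concentrations. GI50: concentration for 50% inhibition of growth. TGI marks complete inhibition of growth.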
Key:
Assay in all cases: inhibition of tumour cell growth, NCI panel, 48 h
OVCAR-5 ovarian = test system: OVCAR-5 ovarian
HT29 colon = test system: HT29 colon
M14 melanoma = test system: M14 melanoma
CAKI-1 renal = test system: CAKI-1 renal
NCI-H522 lung = test system: NCI-H522 lung
SW-620 colon = test system: SW-620 colon
PC-3 prostate = test system: PC-3 prostate
BT-549 breast = test system: BT-549 breast
KM12 colon = test system: KM12 colon
A498 renal = test system: A498 renal
NCI/ADR-RES ovarian = test system: NCI/ADR-RES ovarian
MDA-MB-435 = test system: MDA-MB-435
TK-10 renal = test system: TK-10 renal
SK-MEL-5 melanoma = test system: SK-MEL-5 melanoma
OVCAR-4 ovarian = test system: OVCAR-4 ovarian
MCF7 breast = test system: MCF7 breast
HCC-2998 colon = test system: HCC-2998 colon
EKVX NSCLC = test system: EKVX NSCLC
OVCAR-3 ovarian = test system: OVCAR-3 ovarian
SK-MEL-2 melanoma = test system: SK-MEL-2 melanoma
SF-268 CNS = test system: SF-268 CNS
UACC-257 melanoma = test system: UACC-257 melanoma
UACC-62 melanoma = test system: UACC-62 melanoma
HS 578T breast = test system: HS 578T breast
IGROV1 ovarian = test system: IGROV1 ovarian
CCRF-CEM leukemia = test system: CCRF-CEM leukemia
T-47D breast = test system: T-47D breast
HCT-116 colon = test system: HCT-116 colon
COLO 205 colon = test system: COLO 205 colon
SF-295 CNS = test system: SF-295 CNS
SN12C renal = test system: SN12C renal
ACHN renal = test system: ACHN renal
NCI-H460 lung = test system: NCI-H460 lung
RPMI-8226 leukemia = test system: RPMI-8226 leukemia
SNB-75 CNS = test system: SNB-75 CNS
786-0 renal = test system: 786-0 renal
A549 NSCLC = test system: A549 NSCLC
UO-31 renal = test system: UO-31 renal
SR leukemia = test system: SR leukemia
HCT-15 colon = test system: HCT-15 colon
HOP-92 NSCLC = test system: HOP-92 NSCLC
RXF 393 renal = test system: RXF 393 renal
DU-145 prostate = test system: DU-145 prostate
OVCAR-8 ovarian = test system: OVCAR-8 ovarian
NCI-H226 lung = test system: NCI-H226 lung
U251 CNS = test system: U251 CNS
SF-539 CNS = test system: SF-539 CNS
MALME-3M melanoma = test system: MALME-3M melanoma
MDA-MB-231 breast = test system: MDA-MB-231 breast
HOP-62 NSCLC = test system: HOP-62 NSCLC
SK-OV-3 ovarian = test system: SK-OV-3 ovarian
NCI-H23 lung = test system: NCI-H23 lung
SK-MEL-28 melanoma = test system: SK-MEL-28 melanoma
SNB-19 CNS = test system: SNB-19 CNS

Q: What does the source list for CCN(CC)CCCNc1cccc2c(SCc3ccccc3)ccnc12?
A: GI50 (OVCAR-5 ovarian): 2000 nM; TGI (OVCAR-5 ovarian): 3760 nM; GI50 (HT29 colon): 907 nM; TGI (HT29 colon): 2300 nM; GI50 (M14 melanoma): 1960 nM; TGI (M14 melanoma): 3600 nM; GI50 (CAKI-1 renal): 1590 nM; TGI (CAKI-1 renal): 3210 nM; GI50 (NCI-H522 lung): 1510 nM; TGI (NCI-H522 lung): 3100 nM; GI50 (SW-620 colon): 1700 nM; TGI (SW-620 colon): 3460 nM; GI50 (PC-3 prostate): 1860 nM; TGI (PC-3 prostate): 4880 nM; GI50 (BT-549 breast): 1620 nM; TGI (BT-549 breast): 3350 nM; GI50 (KM12 colon): 1750 nM; TGI (KM12 colon): 3380 nM; GI50 (A498 renal): 1920 nM; TGI (A498 renal): 4980 nM; GI50 (NCI/ADR-RES ovarian): 1960 nM; TGI (NCI/ADR-RES ovarian): 5600 nM; GI50 (MDA-MB-435): 1840 nM; TGI (MDA-MB-435): 3650 nM; GI50 (TK-10 renal): 1560 nM; TGI (TK-10 renal): 2980 nM; GI50 (SK-MEL-5 melanoma): 1680 nM; TGI (SK-MEL-5 melanoma): 3080 nM; GI50 (OVCAR-4 ovarian): 2620 nM; TGI (OVCAR-4 ovarian): 8290 nM; GI50 (MCF7 breast): 1620 nM; TGI (MCF7 breast): 3160 nM; GI50 (HCC-2998 colon): 1730 nM; TGI (HCC-2998 colon): 3200 nM; GI50 (EKVX NSCLC): 2240 nM; TGI (EKVX NSCLC): 6710 nM; GI50 (OVCAR-3 ovarian): 1750 nM; TGI (OVCAR-3 ovarian): 3430 nM; GI50 (SK-MEL-2 melanoma): 1890 nM; TGI (SK-MEL-2 melanoma): 3560 nM; GI50 (SF-268 CNS): 1510 nM; TGI (SF-268 CNS): 3330 nM; GI50 (UACC-257 melanoma): 2090 nM; TGI (UACC-257 melanoma): 3850 nM; GI50 (UACC-62 melanoma): 1740 nM; TGI (UACC-62 melanoma): 3370 nM; GI50 (HS 578T breast): 2200 nM; TGI (HS 578T breast): 6310 nM; GI50 (IGROV1 ovarian): 1900 nM; TGI (IGROV1 ovarian): 3750 nM; GI50 (CCRF-CEM leukemia): 179 nM; TGI (CCRF-CEM leukemia): 3000 nM; GI50 (T-47D breast): 1930 nM; TGI (T-47D breast): 4290 nM; GI50 (HCT-116 colon): 1600 nM; TGI (HCT-116 colon): 2950 nM; GI50 (COLO 205 colon): 1840 nM; TGI (COLO 205 colon): 3440 nM; GI50 (SF-295 CNS): 1800 nM; TGI (SF-295 CNS): 3480 nM; GI50 (SN12C renal): 1810 nM; TGI (SN12C renal): 12600 nM; GI50 (ACHN renal): 1810 nM; TGI (ACHN renal): 3270 nM; GI50 (NCI-H460 lung): 1700 nM; TGI (NCI-H460 lung): 3450 nM; GI50 (RPMI-8226 leukemia): 1240 nM; TGI (RPMI-8226 leukemia): 3370 nM; GI50 (SNB-75 CNS): 1600 nM; TGI (SNB-75 CNS): 3220 nM; GI50 (786-0 renal): 1560 nM; TGI (786-0 renal): 2990 nM; GI50 (A549 NSCLC): 1730 nM; TGI (A549 NSCLC): 3330 nM; GI50 (UO-31 renal): 828 nM; TGI (UO-31 renal): 2440 nM; GI50 (SR leukemia): 1790 nM; TGI (SR leukemia): 4470 nM; GI50 (HCT-15 colon): 1720 nM; TGI (HCT-15 colon): 3820 nM; GI50 (HOP-92 NSCLC): 2180 nM; TGI (HOP-92 NSCLC): 7320 nM; GI50 (RXF 393 renal): 1870 nM; TGI (RXF 393 renal): 3440 nM; GI50 (DU-145 prostate): 1860 nM; TGI (DU-145 prostate): 3490 nM; GI50 (OVCAR-8 ovarian): 3410 nM; TGI (OVCAR-8 ovarian): 11500 nM; GI50 (NCI-H226 lung): 3450 nM; TGI (NCI-H226 lung): 15600 nM; GI50 (U251 CNS): 1690 nM; TGI (U251 CNS): 3250 nM; GI50 (SF-539 CNS): 1630 nM; TGI (SF-539 CNS): 3130 nM; GI50 (MALME-3M melanoma): 2130 nM; TGI (MALME-3M melanoma): 4000 nM; GI50 (MDA-MB-231 breast): 1010 nM; TGI (MDA-MB-231 breast): 2480 nM; GI50 (HOP-62 NSCLC): 1610 nM; TGI (HOP-62 NSCLC): 3050 nM; GI50 (SK-OV-3 ovarian): 2020 nM; TGI (SK-OV-3 ovarian): 4510 nM; GI50 (NCI-H23 lung): 1900 nM; TGI (NCI-H23 lung): 5090 nM; GI50 (SK-MEL-28 melanoma): 1990 nM; TGI (SK-MEL-28 melanoma): 3500 nM; GI50 (SNB-19 CNS): 1830 nM; TGI (SNB-19 CNS): 3890 nM
